Assay results as given in PMC10498151 (RSC Advances, 2023).
Converted amounts (≈) assume the structure as drawn. Where two headings read alike, the source gives them in different places.

Legend:
[1] = cited from earlier work
Finegoldia magna (CI) = assay: microbe, parasite or virus in culture; type: cell-based
[2] = tested on: Clostridium sporogenes (ATCC 3584); assay: microbe, parasite or virus in culture; type: cell-based; settings: ATCC3584
[3] = tested on: Parvimonas micra (ATCC 3870); assay: microbe, parasite or virus in culture; type: cell-based
Fusobacterium mortiferum = assay: microbe, parasite or virus in culture; type: cell-based
Cutibacterium acnes = assay: microbe, parasite or virus in culture; type: cell-based
Fusobacterium nucleatum = assay: microbe, parasite or virus in culture; type: cell-based
[4] = tested on: Porphyromonas asaccharolytica (CI); assay: microbe, parasite or virus in culture; type: cell-based
Porphyromonas sp. (CI) = assay: microbe, parasite or virus in culture; type: cell-based
Bacteroides fragilis = assay: microbe, parasite or virus in culture; type: cell-based
[5] = tested on: Peptostreptococcus anaerobius (CI); assay: microbe, parasite or virus in culture; type: cell-based
[6] = tested on: Prevotella intermedia/nigres-cens (ATCC 25611); assay: microbe, parasite or virus in culture; type: cell-based, Prevotella intermedia/nigrescens; settings: ATCC25611
C. difficile = C. difficile infection, review ref 25; cited from earlier work
[7] = tested on: Clostridium butyricum (CI); assay: microbe, parasite or virus in culture; type: cell-based
[8] = tested on: Eggerthella lenta (ATCC 43055); assay: microbe, parasite or virus in culture; type: cell-based; settings: ATCC43055
[9] = tested on: Porphyromonas gingivalis (ATCC 33277); assay: microbe, parasite or virus in culture; type: cell-based
[10] = tested on: Bacteroides thetaiotaomicron (ATCC 29148); assay: microbe, parasite or virus in culture; type: cell-based; settings: ATCC29148
[11] = tested on: Bacteroides ovatus (ATCC 84834); assay: microbe, parasite or virus in culture; type: cell-based; settings: ATCC84834
Clostridium difficile = assay: microbe, parasite or virus in culture; type: cell-based
Prevotella spp. = type: cell-based
[12] = tested on: Other Bacteroides spp. and Parabacteroides; type: cell-based, Bacteroides spp. and Parabacteroides distasonis
Clostridium perfringens = type: cell-based
[13] = determined in PBS buffer ref 47; cited from earlier work
[14] = tested on: Actinomyces odontolyticus (CI); type: cell-based
[15] = tested on: Clostridium sordellii (CI); type: cell-based
[16] = Fusobacterium nucleatum, ATCC25586
[17] = Bacteroides fragilis, ATCC25285
[18] = Porphyromonas gingivalis, ATCC33277
[19] = Clostridioides difficile, ATCC43255

Row | Molecule | MIC (Finegoldia magna (CI); Finegoldia magna) | MIC [2] | MIC ([3]; Parvimonas micra, ATCC3870) | MIC (Fusobacterium nucleatum; [16]) | MIC [4] | MIC (Porphyromonas sp. (CI); Porphyromonas) | MIC (Bacteroides fragilis; [17]) | MIC [5] | MIC [6] | MIC [7] | MIC [8] | MIC [10] | MIC [11] | MIC (Clostridium difficile; [19]) | Selectivity index (>100 μg mL^−1/MIC90) (Prevotella spp.) | Selectivity index (>100 μg mL^−1/MIC90) [12] | Selectivity index (>100 μg mL^−1/MIC90) (Clostridium perfringens) | Selectivity index (>100 μg mL^−1/MIC90) (Fusobacterium nucleatum) | Selectivity index (>100 μg mL^−1/MIC90) (Bacteroides fragilis) | also measured
1 | O=[N+]([O-])c1ccc(C2=NCCN2c2ccccc2)cc1 [its imidazoline homologue] | – | – | – | – | – | – | – | – | – | – | – | – | – | – | – | – | – | – | – | pKa [1]: 7.65
2 | Cc1ncc([N+](=O)[O-])n1CCO [Mtz, metronidazole, reference compound] | 0.125 µg/mL (≈ 0.73 µM) | 0.25 µg/mL (≈ 1.46 µM) | 0.125 µg/mL (≈ 0.73 µM) | 0.125 µg/mL (≈ 0.73 µM) | 0.25 µg/mL (≈ 1.46 µM) | 0.125 µg/mL (≈ 0.73 µM) | 0.25 µg/mL (≈ 1.46 µM) | 0.125 µg/mL (≈ 0.73 µM) | 1 µg/mL (≈ 5.84 µM) | ≤ 0.06 µg/mL | 0.25 µg/mL (≈ 1.46 µM) | 1 µg/mL (≈ 5.84 µM) | 1 µg/mL (≈ 5.84 µM) | 0.25 µg/mL (≈ 1.46 µM) | – | – | – | – | – | MIC (Fusobacterium mortiferum): 0.25 µg/mL (≈ 1.46 µM); MIC (Cutibacterium acnes): > 64 µg/mL; recurrence after treatment (C. difficile): 27.1%; treatment failure (C. difficile): 22.4%; MIC [9, 18]: ≤ 0.06 µg/mL
3 | [O-][N+]1=C(c2ccc(Cl)cc2)C2=NCCN2c2ccccc21 [1j, 4-(4-Chlorophenyl)-1,2-dihydroimidazo[1,2-a]quinoxaline 5-oxide] | 0.25 µg/mL (≈ 0.84 µM) | 0.25 µg/mL (≈ 0.84 µM) | ≤ 0.06 µg/mL | ≤ 0.06 µg/mL | ≤ 0.06 µg/mL | ≤ 0.06 µg/mL | 0.125 µg/mL (≈ 0.42 µM) | 0.25 µg/mL (≈ 0.84 µM) | ≤ 0.06 µg/mL | ≤ 0.06 µg/mL | ≤ 0.06 µg/mL | 0.125 µg/mL (≈ 0.42 µM) | 0.125 µg/mL (≈ 0.42 µM) | 0.25 µg/mL (≈ 0.84 µM) | >1667 | >800 | >100 | >800 | >800 | MIC [9, 18]: ≤ 0.06 µg/mL; logP: experimental log of the octanol/water partition coefficient [13]: 1.292
4 | O=[N+]([O-])c1ccc(C2=[N+]([O-])c3ccccc3N3CCN=C23)cc1 [1k, 4-(4-Nitrophenyl)-1,2-dihydroimidazo[1,2-a]quinoxaline 5-oxide] | 1 µg/mL (≈ 3.24 µM) | ≤ 0.06 µg/mL | ≤ 0.06 µg/mL | ≤ 0.06 µg/mL | ≤ 0.06 µg/mL | ≤ 0.06 µg/mL | ≤ 0.06 µg/mL | ≤ 0.06 µg/mL | ≤ 0.06 µg/mL | ≤ 0.06 µg/mL | ≤ 0.06 µg/mL | ≤ 0.06 µg/mL | ≤ 0.06 µg/mL | ≤ 0.06 µg/mL | >1667 | >1667 | >800 | >1667 | >1667 | MIC (Cutibacterium acnes): 32 µg/mL (≈ 104 µM); Selectivity index (IS) (RAW 264.7 cells): > 800; Selectivity index (>100 μg mL^−1/MIC90) (Clostridium difficile): >1667
5 | 5-phenyl-2,3-dihydropyrimidoquinoxaline N-oxide [1a] | – | – | – | – | – | – | – | – | – | – | – | – | – | – | >100 | >100 | >6 | >100 | >100 | MIC [14]: 32 µg/mL; MIC (Finegoldia magna (CI)): 2 µg/mL; MIC [3]: 0.125 µg/mL; MIC (Fusobacterium nucleatum): 0.125 µg/mL; Cell viability (RAW 264.7 cells): 98%; MIC (Porphyromonas sp. (CI)): 0.125 µg/mL; MIC (Bacteroides fragilis): 1 µg/mL; MIC [9]: ≤0.06 µg/mL; MIC [15]: 16 µg/mL; logP: experimental log of the octanol/water partition coefficient [13]: −0.149; MIC (Clostridium difficile): 4 µg/mL; Selectivity index (>100 μg mL^−1/MIC90) (Clostridium difficile): >25
6 | O=[N+]([O-])c1ccc(C2=NCCCN2c2ccccc2)cc1 [1-phenyl-2-4-nitrophenyl-1,4,5,6-tetrahydropyrimidine] | – | – | – | – | – | – | – | – | – | – | – | – | – | – | – | – | – | – | – | pKa [1]: 10.51
7 | CN[C@H](CC(C)C)C(=O)N[C@H]1C(=O)N[C@@H](CC(N)=O)C(=O)N[C@H]2C(=O)N[C@H]3C(=O)N[C@H](C(=O)N[C@H](C(=O)O)c4cc(O)cc(O)c4-c4cc3ccc4O)[C@H](O)c3ccc(c(Cl)c3)Oc3cc2cc(c3O[C@@H]2O[C@H](CO)[C@@H](O)[C@H](O)[C@H]2O[C@H]2C[C@](C)(N)[C@H](O)[C@H](C)O2)Oc2ccc(cc2Cl)[C@H]1O [vancomycin] | – | – | – | – | – | – | – | – | – | – | – | – | – | – | – | – | – | – | – | recurrence after treatment (C. difficile): 24.0%; treatment failure (C. difficile): 14.2%
